# Reference: patent US20020137929A1, “1 - (3-heterocyclylphenyl) isothiourea, -isourea, -guanidine and -amidine herbicidal agents” (Intellectual Property Department, BASF Aktiengesellschaft, priority 1998, published 2002)
# Columns and labels:
# ORYSAT (Rice, Tebonnet) [1] = assay: Preemergence herbicidal evaluation; type: in vivo, Oryza sativa, (L.) Tebonnet; settings: rated 4-5 weeks after treatment
# Procedure, shortened: (§1)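 Sown cups got a single aqueous acetone spray of test compound (roughly 0.0156–0.500 kg/ha) before seedlings emerged. Evaluation, 4–5 weeks on, used a 0–9 visual scale covering plant stand, vigor, size, malformation, chlorosis and general appearance compared with controls.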
# MOOVA (Monochoria) = assay: Preemergence weed control under flooded paddy conditions; type: in vivo, Monochoria vaginalis; settings: rated 3-4 weeks after treatment
# Procedure, shortened: (§2)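 Flooded-pot preemergence screen with silt loam and seeds in the upper 0.5 cm. Dose about 0.0313 to 0.500 kg/ha, delivered into flood water; visual 0-9 score after 3 to 4 weeks.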
# GALAP (Galium) = assay: Postemergence herbicidal evaluation; type: in vivo, Galium aparine
# Procedure, shortened: (§3)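 Young plants, roughly two weeks from seeding, receive the active ingredient as a sprayed dispersion (acetone/water 50/50, 0.5% TWEEN 20) at 40 psi. Doses span about 0.0156 to 0.500 kg/ha. A visual score from 0 to 9 compares treated with control plants four to five weeks on.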
# AMBEL (Ragweed, Common) = assay: Preemergence herbicidal evaluation; type: in vivo, Ambrosia artemisifolia; settings: rated 4-5 weeks after treatment
# Procedure, shortened: as §1
# ORYSAT (Rice, Tebonnet) [2] = assay: Postemergence herbicidal evaluation; type: in vivo, Oryza sativa, (L.) Tebonnet
# Procedure, shortened: as §3
# [3] = system: CHEAL (Lambsquarters, Common); assay: Postemergence herbicidal evaluation; type: in vivo, Chenopodium album
# Procedure, shortened: as §3
# CYPIR (Rice Flatsedge) = assay: Postemergence weed control under flooded paddy conditions; type: in vivo, Cyperus iria; settings: postemergence weeds, rated 3 to 4 weeks after treatment
# Procedure, shortened: (§4)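 Injury ratings (0–9 scale covering stand, vigor, malformation, size, chlorosis and overall appearance versus control) were made three to four weeks after treatment. Test material, about 0.0313 to 0.500 kg/ha a.i. in 50/50 v/v aqueous/acetone, was added to flood water 1.5 to 3 cm deep over 3 to 5 cm weeds and 1.5 to 2.5 leaf rice.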
# CYPSE (Flatsedge) [4] = assay: as above; type: in vivo, Cyperus serotinus; settings: postemergence weeds, rated 3 to 4 weeks after treatment
# Procedure, shortened: as §4
# [5] = system: GLXMAW (Soybean, Williams); assay: Preemergence herbicidal evaluation; type: in vivo, Glycine max, (L.) Merr. cv Williams; settings: rated 4-5 weeks after treatment
# Procedure, shortened: as §1
# CASOB (Sicklepod) = assay: Postemergence herbicidal evaluation; type: in vivo, Cassia obtusifolia
# Procedure, shortened: as §3
# CYPSE (Flatsedge) [6] = assay: Preemergence weed control under flooded paddy conditions; type: in vivo, Cyperus serotinus; settings: rated 3-4 weeks after treatment
# Procedure, shortened: as §2
# [7] = system: SAGPY (Arrowhead (Pygmaea)); assay: Postemergence weed control under flooded paddy conditions; type: in vivo, Sagittaria pygmaea; settings: postemergence weeds, rated 3 to 4 weeks after treatment
# Procedure, shortened: as §4
# SETVI (Foxtail, Green) = assay: Preemergence herbicidal evaluation; type: in vivo, Setaria viridis; settings: rated 4-5 weeks after treatment
# Procedure, shortened: as §1
# ZEAMX (Corn, Field) = assay: Postemergence herbicidal evaluation; type: in vivo, Zea mays
# Procedure, shortened: as §3
compound,measurement,setting,value
"CCOC(=O)CN1C(=O)C(CC(=O)OC(C)C)SC1=Nc1cc(-n2c(=O)cc(C(F)(F)F)n(C)c2=O)c(F)cc1Cl (centres unmarked) [Compound 60, 2-{{2-Chloro-5-[3,6-dihydro-3-methyl-2,6-dioxo-4-(trifluoromethyl)-1(2H)-pyrimidinyl]-4-fluoro-phenyl}imino}-4-oxo-3,5-thiazolidinediacetic acid, 3-ethyl isopropyl ester]",Preemergence herbicidal rating ORYSAT,"ORYSAT (Rice, Tebonnet) [1]; rate 0.0156 kg/ha",0.0
same,Preemergence herbicidal rating ORYSAT,"ORYSAT (Rice, Tebonnet) [1]; rate 0.0313 kg/ha",0.0
same,Preemergence herbicidal rating ORYSAT,"ORYSAT (Rice, Tebonnet) [1]; rate 0.0625 kg/ha",0.0
same,Preemergence herbicidal rating ORYSAT,"ORYSAT (Rice, Tebonnet) [1]; rate 0.1250 kg/ha",0.5
same,Preemergence herbicidal rating ORYSAT,"ORYSAT (Rice, Tebonnet) [1]; rate 0.2500 kg/ha",2.0
same,Preemergence herbicidal rating ORYSAT,"ORYSAT (Rice, Tebonnet) [1]; rate 0.5000 kg/ha",7.0
same,MOOVA herbicidal effect rating,MOOVA (Monochoria); 0.0313 kg/ha,9.0
same,MOOVA herbicidal effect rating,MOOVA (Monochoria); 0.0625 kg/ha,9.0
same,MOOVA herbicidal effect rating,MOOVA (Monochoria); 0.1250 kg/ha,9.0
same,MOOVA herbicidal effect rating,MOOVA (Monochoria); 0.2500 kg/ha,9.0
same,Postemergence herbicidal rating GALAP,GALAP (Galium); Rate 0.0158 kg/ha,0.0
same,Postemergence herbicidal rating GALAP,GALAP (Galium); Rate 0.0315 kg/ha,2.0
same,Postemergence herbicidal rating GALAP,GALAP (Galium); Rate 0.0630 kg/ha,5.0
same,Preemergence herbicidal rating AMBEL,"AMBEL (Ragweed, Common); rate 0.0156 kg/ha",0.0
same,Preemergence herbicidal rating AMBEL,"AMBEL (Ragweed, Common); rate 0.0313 kg/ha",0.0
same,Preemergence herbicidal rating AMBEL,"AMBEL (Ragweed, Common); rate 0.0625 kg/ha",2.0
same,Preemergence herbicidal rating AMBEL,"AMBEL (Ragweed, Common); rate 0.1250 kg/ha",7.0
same,Preemergence herbicidal rating AMBEL,"AMBEL (Ragweed, Common); rate 0.2500 kg/ha",7.0
same,Preemergence herbicidal rating AMBEL,"AMBEL (Ragweed, Common); rate 0.5000 kg/ha",9.0
same,Postemergence herbicidal rating ORYSAT,"ORYSAT (Rice, Tebonnet) [2]; Rate 0.0158 kg/ha",3.0
same,Postemergence herbicidal rating ORYSAT,"ORYSAT (Rice, Tebonnet) [2]; Rate 0.0315 kg/ha",3.0
same,Postemergence herbicidal rating ORYSAT,"ORYSAT (Rice, Tebonnet) [2]; Rate 0.0630 kg/ha",5.0
same,Postemergence herbicidal rating CHEAL,[3]; Rate 0.0158 kg/ha,4.0
same,Postemergence herbicidal rating CHEAL,[3]; Rate 0.0315 kg/ha,4.0
same,Postemergence herbicidal rating CHEAL,[3]; Rate 0.0630 kg/ha,9.0
same,Herbicidal rating CYPIR,CYPIR (Rice Flatsedge); Rate 0.0313 kg/ha,3.0
same,Herbicidal rating CYPIR,CYPIR (Rice Flatsedge); Rate 0.0625 kg/ha,3.0
same,Herbicidal rating CYPIR,CYPIR (Rice Flatsedge); Rate 0.1250 kg/ha,6.0
same,Herbicidal rating CYPIR,CYPIR (Rice Flatsedge); Rate 0.2500 kg/ha,6.0
same,Herbicidal rating CYPSE,CYPSE (Flatsedge) [4]; Rate 0.0313 kg/ha,2.0
same,Herbicidal rating CYPSE,CYPSE (Flatsedge) [4]; Rate 0.0625 kg/ha,2.0
same,Herbicidal rating CYPSE,CYPSE (Flatsedge) [4]; Rate 0.1250 kg/ha,4.0
same,Herbicidal rating CYPSE,CYPSE (Flatsedge) [4]; Rate 0.2500 kg/ha,4.0
same,Preemergence herbicidal rating GLXMAW,[5]; rate 0.0156 kg/ha,1.0
same,Preemergence herbicidal rating GLXMAW,[5]; rate 0.0313 kg/ha,0.5
same,Preemergence herbicidal rating GLXMAW,[5]; rate 0.0625 kg/ha,1.5
same,Preemergence herbicidal rating GLXMAW,[5]; rate 0.1250 kg/ha,3.0
same,Preemergence herbicidal rating GLXMAW,[5]; rate 0.2500 kg/ha,3.5
same,Preemergence herbicidal rating GLXMAW,[5]; rate 0.5000 kg/ha,6.0
same,Postemergence herbicidal rating CASOB,CASOB (Sicklepod); Rate 0.0158 kg/ha,0.0
same,Postemergence herbicidal rating CASOB,CASOB (Sicklepod); Rate 0.0315 kg/ha,0.0
same,Postemergence herbicidal rating CASOB,CASOB (Sicklepod); Rate 0.0630 kg/ha,3.0
same,CYPSE herbicidal effect rating,CYPSE (Flatsedge) [6]; 0.0313 kg/ha,2.0
same,CYPSE herbicidal effect rating,CYPSE (Flatsedge) [6]; 0.0625 kg/ha,2.0
same,CYPSE herbicidal effect rating,CYPSE (Flatsedge) [6]; 0.1250 kg/ha,4.0
same,CYPSE herbicidal effect rating,CYPSE (Flatsedge) [6]; 0.2500 kg/ha,4.0
same,Herbicidal rating SAGPY,[7]; Rate 0.0313 kg/ha,3.0
same,Herbicidal rating SAGPY,[7]; Rate 0.0625 kg/ha,4.0
same,Herbicidal rating SAGPY,[7]; Rate 0.1250 kg/ha,9.0
same,Herbicidal rating SAGPY,[7]; Rate 0.2500 kg/ha,9.0
same,Preemergence herbicidal rating SETVI,"SETVI (Foxtail, Green); rate 0.0156 kg/ha",0.0
same,Preemergence herbicidal rating SETVI,"SETVI (Foxtail, Green); rate 0.0313 kg/ha",0.5
same,Preemergence herbicidal rating SETVI,"SETVI (Foxtail, Green); rate 0.0625 kg/ha",0.5
same,Preemergence herbicidal rating SETVI,"SETVI (Foxtail, Green); rate 0.1250 kg/ha",4.5
same,Preemergence herbicidal rating SETVI,"SETVI (Foxtail, Green); rate 0.2500 kg/ha",4.5
same,Preemergence herbicidal rating SETVI,"SETVI (Foxtail, Green); rate 0.5000 kg/ha",8.0
same,Postemergence herbicidal rating ZEAMX,"ZEAMX (Corn, Field); Rate 0.0158 kg/ha",5.0
same,Postemergence herbicidal rating ZEAMX,"ZEAMX (Corn, Field); Rate 0.0315 kg/ha",5.0
same,Postemergence herbicidal rating ZEAMX,"ZEAMX (Corn, Field); Rate 0.0630 kg/ha",5.5
